{"source": "patent US20100267561A1", "about": "“HERBICIDAL PYRIDAZINONE DERIVATIVES” (priority 2007, published 2010)", "assay_in_all_cases": "Test B pre-/postemergence plant response", "type_in_all_cases": "in vivo", "key": {"soybean (Glycine max)": {"system": "soybean (Glycine max)", "settings": "for Soybean plant response rating: 8 g ai/ha", "how_it_was_run": "(§1)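 Visual scoring from 0 (no effect) to 100 (complete control) against untreated controls was done 13 to 15 days after greenhouse treatment. Chemicals were formulated in a surfactant-containing non-phytotoxic solvent and applied to soil preemergence or to 1- to 4-leaf (2-18 cm) plants postemergence.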"}, "[1]": {"system": "common ragweed (Ambrosia elation)", "settings": "for Ragweed plant response rating: 8 g ai/ha", "how_it_was_run": "as §1"}, "[2]": {"system": "woolly cupgrass (Eriochloa villosa)", "settings": "for Cupgrass, Woolly plant response rating: 8 g ai/ha", "how_it_was_run": "as §1"}, "[3]": {"system": "Italian ryegrass (Lolium multiflorum)", "settings": "for Ryegrass, Italian plant response rating: 8 g ai/ha", "how_it_was_run": "as §1"}, "[4]": {"system": "goosegrass (Eleusine indica)", "settings": "for Goosegrass plant response rating: 8 g ai/ha", "how_it_was_run": "as §1"}, "[5]": {"system": "surinam grass (Brachiaria decumbens)", "settings": "for Surinam Grass plant response rating: 8 g ai/ha", "how_it_was_run": "as §1"}, "[6]": {"system": "catchweed bedstraw (Galium aparine)", "settings": "Preemergence", "how_it_was_run": "as §1"}, "kochia (Kochia scoparia)": {"system": "kochia (Kochia scoparia)", "settings": "for Kochia plant response rating: 8 g ai/ha", "how_it_was_run": "as §1"}, "[7]": {"system": "downy bromegrass (Bromus tectorum)", "settings": "for Bromegrass, Downy plant response rating: 8 g ai/ha", "how_it_was_run": "as §1"}, "[8]": {"system": "pigweed (Amaranthus retroflexus)", "settings": "for Pigweed plant response rating: 8 g ai/ha", "how_it_was_run": "as §1"}, "[9]": {"system": "large crabgrass (Digitaria sanguinalis)", "settings": "for Crabgrass, Large plant response rating: 8 g ai/ha", "how_it_was_run": "as §1"}, "[10]": {"system": "cocklebur (Xanthium strumarium)", "settings": "for Cocklebur plant response rating: 8 g ai/ha", "how_it_was_run": "as §1"}, "[11]": {"system": "common (oilseed) sunflower (Helianthus annuus)", "settings": "Preemergence", "how_it_was_run": "as §1"}, "[12]": {"system": "Russian thistle (Salsola iberica)", "settings": "Preemergence", "how_it_was_run": "as §1"}, "[13]": {"settings": "Postemergence, 16 g ai/ha, scale 0 to 100"}, "[14]": {"settings": "Postemergence, 62 g ai/ha, scale 0 to 100, 0 no effect, 100 complete control"}, "[15]": {"settings": "Preemergence, 16 g ai/ha, scale 0 to 100 (0 no effect, 100 complete control)"}, "[16]": {"settings": "Preemergence, 31 g ai/ha, 0 to 100 scale, 0 no effect, 100 complete control"}, "[17]": {"settings": "Preemergence, 62 g ai/ha, scale 0 to 100"}, "[18]": {"settings": "Postemergence, 31 g ai/ha, scale 0 to 100, 0 no effect, 100 complete control"}, "[19]": {"settings": "16 g ai/ha, scale 0 to 100 (0 no effect, 100 complete control)"}, "[20]": {"settings": "31 g ai/ha, 0 to 100 scale, 0 no effect, 100 complete control"}}, "data": [{"smiles": "Cc1cc(-c2ccc(Cl)cc2)nn1-c1c(OC(=O)C(C)C)cnn(C)c1=O", "note": "[Compound 34]", "values": [{"measurement": "Soybean plant response rating", "setting": "soybean (Glycine max); postemergence, 0-100 scale", "value": 0}, {"measurement": "Plant response rating, Soybean", "setting": "soybean (Glycine max); [13]", "value": 0}, {"measurement": "Plant response rating, Soybean", "setting": "soybean (Glycine max); [14]", "value": 0}, {"measurement": "Plant response rating, Soybean", "setting": "soybean (Glycine max); [15]", "value": 0}, {"measurement": "Plant response rating, Soybean", "setting": "soybean (Glycine max); [16]", "value": 0}, {"measurement": "Plant response rating, Soybean", "setting": "soybean (Glycine max); [17]", "value": 0}, {"measurement": "Soybean plant response rating", "setting": "soybean (Glycine max); Preemergence, scale 0 to 100", "value": 0}, {"measurement": "Ragweed plant response rating", "setting": "[1]; postemergence, 0-100 scale", "value": 0}, {"measurement": "Plant response rating, Ragweed", "setting": "[1]; [13]", "value": 0}, {"measurement": "Plant response rating, Ragweed", "setting": "[1]; [18]", "value": 0}, {"measurement": "Plant response rating, Ragweed", "setting": "[1]; [14]", "value": 0}, {"measurement": "Plant response rating, Ragweed", "setting": "[1]; [15]", "value": 0}, {"measurement": "Plant response rating, Ragweed", "setting": "[1]; [16]", "value": 0}, {"measurement": "Plant response rating, Ragweed", "setting": "[1]; [17]", "value": 0}, {"measurement": "Ragweed plant response rating", "setting": "[1]; Preemergence, scale 0 to 100", "value": 0}, {"measurement": "Cupgrass, Woolly plant response rating", "setting": "[2]; postemergence, 0-100 scale", "value": 75}, {"measurement": "Plant response rating, Cupgrass, Woolly", "setting": "[2]; [13]", "value": 90}, {"measurement": "Plant response rating, Cupgrass, Woolly", "setting": "[2]; [18]", "value": 100}, {"measurement": "Plant response rating, Cupgrass, Woolly", "setting": "[2]; [14]", "value": 100}, {"measurement": "Plant response rating, Cupgrass, Woolly", "setting": "[2]; [15]", "value": 90}, {"measurement": "Plant response rating, Cupgrass, Woolly", "setting": "[2]; [16]", "value": 95}, {"measurement": "Plant response rating, Cupgrass, Woolly", "setting": "[2]; [17]", "value": 95}, {"measurement": "Cupgrass, Woolly plant response rating", "setting": "[2]; Preemergence, scale 0 to 100", "value": 55}, {"measurement": "Ryegrass, Italian plant response rating", "setting": "[3]; postemergence, 0-100 scale", "value": 70}, {"measurement": "Plant response rating, Ryegrass, Italian", "setting": "[3]; [13]", "value": 85}, {"measurement": "Plant response rating, Ryegrass, Italian", "setting": "[3]; [18]", "value": 95}, {"measurement": "Plant response rating, Ryegrass, Italian", "setting": "[3]; [14]", "value": 100}, {"measurement": "Plant response rating, Ryegrass, Italian", "setting": "[3]; [15]", "value": 100}, {"measurement": "Plant response rating, Ryegrass, Italian", "setting": "[3]; [16]", "value": 100}, {"measurement": "Plant response rating, Ryegrass, Italian", "setting": "[3]; [17]", "value": 100}, {"measurement": "Ryegrass, Italian plant response rating", "setting": "[3]; Preemergence, scale 0 to 100", "value": 100}, {"measurement": "Goosegrass plant response rating", "setting": "[4]; postemergence, 0-100 scale", "value": 50}, {"measurement": "Plant response rating, Goosegrass", "setting": "[4]; [13]", "value": 55}, {"measurement": "Plant response rating, Goosegrass", "setting": "[4]; [18]", "value": 70}, {"measurement": "Plant response rating, Goosegrass", "setting": "[4]; [14]", "value": 80}, {"measurement": "Plant response rating, Goosegrass", "setting": "[4]; [15]", "value": 85}, {"measurement": "Plant response rating, Goosegrass", "setting": "[4]; [16]", "value": 98}, {"measurement": "Plant response rating, Goosegrass", "setting": "[4]; [17]", "value": 100}, {"measurement": "Goosegrass plant response rating", "setting": "[4]; Preemergence, scale 0 to 100", "value": 55}, {"measurement": "Surinam Grass plant response rating", "setting": "[5]; postemergence, 0-100 scale", "value": 70}, {"measurement": "Plant response rating, Surinam Grass", "setting": "[5]; [13]", "value": 80}, {"measurement": "Plant response rating, Surinam Grass", "setting": "[5]; [14]", "value": 100}, {"measurement": "Plant response rating, Surinam Grass", "setting": "[5]; [15]", "value": 100}, {"measurement": "Plant response rating, Surinam Grass", "setting": "[5]; [16]", "value": 100}, {"measurement": "Plant response rating, Surinam Grass", "setting": "[5]; [17]", "value": 100}, {"measurement": "Surinam Grass plant response rating", "setting": "[5]; Preemergence, scale 0 to 100", "value": 95}, {"measurement": "Plant response rating, Galium", "setting": "[6]; [19]", "value": 0}, {"measurement": "Plant response rating, Galium", "setting": "[6]; [20]", "value": 0}, {"measurement": "Plant response rating, Galium", "setting": "[6]; 62 g ai/ha, scale 0 to 100", "value": 0}, {"measurement": "Galium plant response rating", "setting": "[6]; 8 g ai/ha, scale 0 to 100", "value": 0}, {"measurement": "Kochia plant response rating", "setting": "kochia (Kochia scoparia); postemergence, 0-100 scale", "value": 0}, {"measurement": "Plant response rating, Kochia", "setting": "kochia (Kochia scoparia); [13]", "value": 0}, {"measurement": "Plant response rating, Kochia", "setting": "kochia (Kochia scoparia); [18]", "value": 0}, {"measurement": "Plant response rating, Kochia", "setting": "kochia (Kochia scoparia); [14]", "value": 0}, {"measurement": "Plant response rating, Kochia", "setting": "kochia (Kochia scoparia); [15]", "value": 0}, {"measurement": "Plant response rating, Kochia", "setting": "kochia (Kochia scoparia); [16]", "value": 0}, {"measurement": "Plant response rating, Kochia", "setting": "kochia (Kochia scoparia); [17]", "value": 0}, {"measurement": "Kochia plant response rating", "setting": "kochia (Kochia scoparia); Preemergence, scale 0 to 100", "value": 0}, {"measurement": "Bromegrass, Downy plant response rating", "setting": "[7]; postemergence, 0-100 scale", "value": 20}, {"measurement": "Plant response rating, Bromegrass, Downy", "setting": "[7]; [13]", "value": 50}, {"measurement": "Plant response rating, Bromegrass, Downy", "setting": "[7]; [18]", "value": 50}, {"measurement": "Plant response rating, Bromegrass, Downy", "setting": "[7]; [14]", "value": 80}, {"measurement": "Plant response rating, Bromegrass, Downy", "setting": "[7]; [15]", "value": 55}, {"measurement": "Plant response rating, Bromegrass, Downy", "setting": "[7]; [16]", "value": 55}, {"measurement": "Plant response rating, Bromegrass, Downy", "setting": "[7]; [17]", "value": 80}, {"measurement": "Bromegrass, Downy plant response rating", "setting": "[7]; Preemergence, scale 0 to 100", "value": 0}, {"measurement": "Pigweed plant response rating", "setting": "[8]; postemergence, 0-100 scale", "value": 0}, {"measurement": "Plant response rating, Pigweed", "setting": "[8]; [13]", "value": 0}, {"measurement": "Plant response rating, Pigweed", "setting": "[8]; [18]", "value": 0}, {"measurement": "Plant response rating, Pigweed", "setting": "[8]; [14]", "value": 0}, {"measurement": "Plant response rating, Pigweed", "setting": "[8]; [15]", "value": 0}, {"measurement": "Plant response rating, Pigweed", "setting": "[8]; [16]", "value": 0}, {"measurement": "Plant response rating, Pigweed", "setting": "[8]; [17]", "value": 0}, {"measurement": "Pigweed plant response rating", "setting": "[8]; Preemergence, scale 0 to 100", "value": 0}, {"measurement": "Crabgrass, Large plant response rating", "setting": "[9]; postemergence, 0-100 scale", "value": 70}, {"measurement": "Plant response rating, Crabgrass, Large", "setting": "[9]; [13]", "value": 80}, {"measurement": "Plant response rating, Crabgrass, Large", "setting": "[9]; [18]", "value": 95}, {"measurement": "Plant response rating, Crabgrass, Large", "setting": "[9]; [14]", "value": 100}, {"measurement": "Plant response rating, Crabgrass, Large", "setting": "[9]; [15]", "value": 100}, {"measurement": "Plant response rating, Crabgrass, Large", "setting": "[9]; [16]", "value": 100}, {"measurement": "Plant response rating, Crabgrass, Large", "setting": "[9]; [17]", "value": 100}, {"measurement": "Crabgrass, Large plant response rating", "setting": "[9]; Preemergence, scale 0 to 100", "value": 100}, {"measurement": "Cocklebur plant response rating", "setting": "[10]; postemergence, 0-100 scale", "value": 0}, {"measurement": "Plant response rating, Cocklebur", "setting": "[10]; [13]", "value": 0}, {"measurement": "Plant response rating, Cocklebur", "setting": "[10]; [18]", "value": 0}, {"measurement": "Plant response rating, Cocklebur", "setting": "[10]; [14]", "value": 0}, {"measurement": "Plant response rating, Cocklebur", "setting": "[10]; [15]", "value": 0}, {"measurement": "Plant response rating, Cocklebur", "setting": "[10]; [16]", "value": 0}, {"measurement": "Plant response rating, Cocklebur", "setting": "[10]; [17]", "value": 0}, {"measurement": "Cocklebur plant response rating", "setting": "[10]; Preemergence, scale 0 to 100", "value": 0}, {"measurement": "Plant response rating, Sunflower", "setting": "[11]; [19]", "value": 0}, {"measurement": "Plant response rating, Sunflower", "setting": "[11]; [20]", "value": 0}, {"measurement": "Plant response rating, Sunflower", "setting": "[11]; 62 g ai/ha, scale 0 to 100", "value": 0}, {"measurement": "Sunflower plant response rating", "setting": "[11]; 8 g ai/ha, scale 0 to 100", "value": 0}, {"measurement": "Plant response rating, Russian Thistle", "setting": "[12]; [19]", "value": 0}, {"measurement": "Plant response rating, Russian Thistle", "setting": "[12]; [20]", "value": 0}, {"measurement": "Plant response rating, Russian Thistle", "setting": "[12]; 62 g ai/ha, scale 0 to 100", "value": 0}, {"measurement": "Russian Thistle plant response rating", "setting": "[12]; 8 g ai/ha, scale 0 to 100", "value": 0}]}]}
